Here are results for ten molecules from patent US20200405697A1, “Antitumor Agent” (Taiho Pharmaceutical Co., Ltd, priority 2017, published 2020).

Experiment [1] addresses T1, human RNR (histidine tagged human M1 and human M2 proteins) (Homo sapiens, UniProt P23921).
T1 construct: made in house; host or cells: Escherichia coli
T1 sequence (P23921 1-792): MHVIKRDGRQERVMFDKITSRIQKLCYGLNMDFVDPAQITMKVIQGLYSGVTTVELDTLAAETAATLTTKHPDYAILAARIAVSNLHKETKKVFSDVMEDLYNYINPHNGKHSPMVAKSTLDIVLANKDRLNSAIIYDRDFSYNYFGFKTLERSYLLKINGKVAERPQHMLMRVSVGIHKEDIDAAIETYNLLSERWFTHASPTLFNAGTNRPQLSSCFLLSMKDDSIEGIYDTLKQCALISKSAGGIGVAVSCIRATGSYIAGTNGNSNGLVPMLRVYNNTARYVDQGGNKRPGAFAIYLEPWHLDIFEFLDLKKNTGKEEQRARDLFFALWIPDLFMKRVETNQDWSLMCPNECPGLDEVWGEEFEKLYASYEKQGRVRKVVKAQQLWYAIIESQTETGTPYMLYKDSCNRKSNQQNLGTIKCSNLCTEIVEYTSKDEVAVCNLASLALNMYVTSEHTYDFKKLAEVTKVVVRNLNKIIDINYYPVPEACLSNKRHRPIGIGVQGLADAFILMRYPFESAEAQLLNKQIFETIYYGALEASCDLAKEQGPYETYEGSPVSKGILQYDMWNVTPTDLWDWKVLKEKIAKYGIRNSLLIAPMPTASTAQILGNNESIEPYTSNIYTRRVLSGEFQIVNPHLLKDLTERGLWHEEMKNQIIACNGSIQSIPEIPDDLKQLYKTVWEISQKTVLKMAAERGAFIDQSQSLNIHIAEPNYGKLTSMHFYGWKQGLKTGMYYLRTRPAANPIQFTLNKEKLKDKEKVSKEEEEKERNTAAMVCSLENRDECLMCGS
Nature of the experiment: Human RNR inhibition effect (dCDP formation from CDP). It is filed as biochemical. To be noted: 10 μM CDP, 37° C. for 30 minutes, read-out: RNR inhibitory activity IC50. A digest of the protocol:
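His-tagged human M1 (isoform 1) and N-terminal 59-aa-truncated M2 (isoform 2), E. coli-expressed, Ni-purified, preincubated 20 min with compound (1% DMSO). Reaction with 10 μM CDP, 2 mM ATP, 0.24 mM NADPH, 6 mM DTT, 4 mM Mg acetate, 100 mM KCl, 50 mM HEPES pH 7.2, 30 min at 37° C. dCDP formed quantified by reverse-phase HPLC after heat stop.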

The subject of experiment [2] is MV-4-11. Nature of the experiment: Antitumor effect in human-derived blood cancer cell line (MV-4-11) subcutaneous transplantation model (in vivo). Also on record: species or system nude mouse (BALB/cA Jcl-nu/nu). To be noted: oral, 100 mg/kg/day once per day for 14 days; RTV vs control group, Student-t test, p<0.05. Here is the method: A human-derived blood cancer cell line MV-4-11 was transplanted subcutaneously into a nude mouse (BALB/cA Jcl-nu/nu, CLEA Japan, Inc.), and at the time when the tumor volume of the nude mouse on which the engrafted tumor reached 100 to 300 mm^3, four mice were assigned to each group by random stratification so that the average of the tumor volumes of each group was uniform (day 0), and the Example compound was orally administered daily at 100 mg/kg/day once per day for 14 days. Example Compound dosing solutions were prepared using 0.5% HPMC.
An electric balance for animals was used in body weight measurement. Rate of change in body weight on day n (BWCn) from body weight on day n (BWn) was calculated according to the following equation.
Rate of change in body weight BWCn (%)=(BWn−BW0)/BW0×100
Tumor volume (TV) was calculated according to the following equation by sandwiching and measuring the major axis and the minor axis with a digital caliper.
Tumor volume (mm^3)=Major axis (mm)×Minor axis (mm)×Minor axis (mm)/2
In order to compare the chronological transition of proliferation of tumor for the administration of each compound, relative tumor volume (RTV) setting the tumor volume at the time of grouping as 1 as the tumor proliferation rate was calculated according to the following formula, and the transition of the average value of RTV of each individual are shown in FIGS. 1 to 4.
RTV=(tumor volume at the day of tumor volume measurement)/(tumor volume at the time of the grouping)

In experiment [3] the test system is HCC 1806 cells. Nature of the experiment: Cell proliferation inhibitory effect on human breast cancer cell line. It is filed as cell-based. To be noted: HCC1806, 72 h, crystal violet, read-out: Cell growth suppression IC50. As for the experimental part: (§1) Human derived breast cancer cell line HCC 1806 cells (American Type Culture Collection, ATCC) were daily passaged at a cell density not exceeding 80% in ATCC recommended Roswell Park Memorial Institute medium (RPMI-1640) containing 10% fetal bovine serum (FBS). In order to start the test of cell proliferation inhibitory activity, HCC 1806 cells were suspended in the above medium, after seeing at 180 μL in each well of a 96-well flat bottom plate so that the number of cells per well was 2,000, the cells were cultured at 37° C. for 1 day in an incubator containing 5% carbon dioxide gas.
(§2) On the next day, the Example compound was dissolved in DMSO, and 20 μL of a drug additive solution diluted serially with distilled water to 10 times of the final concentration was added to each well of the culture plate of the cells, and the cells were cultured at 37° C. for 72 hours in an incubator containing 5% carbon dioxide gas. After culturing for 72 hours, 20 μL of glutaraldehyde was added to each well and allowed to stand for 30 minutes, then the plate was washed 10 times with water and was dried. 100 μL of a stain solution (0.05% crystal violet in a 20% methanol solution) was added to each well and allowed to stand for 30 minutes, then the plate was washed 10 times with water and was dried. 100 μL of an extract solution (0.1 N NaH2PO4: 100% ethanol=1:1) was added to each well and mixed, and the mixture was measured at a wavelength of 540 nm using a plate reader (MTP-450 manufactured by Corona Electric Co., Ltd.).
(§3) The growth inhibition rate was calculated from the following formula, and the concentration (IC50 (μM)) of a compound inhibiting 50% was determined.
Growth inhibition rate (%){(C-B)−(T-B)}(C-B)×100
T: Absorbance of well to which Example compound was added
C: Absorbance of wells to which no Example compound was added
B: Absorbance of wells to which no cell was added

Experiment [4] concerns GB-1 cells. Nature of the experiment: Cell proliferation inhibitory effect on human cancer cell lines: GB-1. It is filed as cell-based. Conditions: GB-1, Glioblastoma, DMEM + 10% FBS, 3000 cell/well. Here is the method: as §1, §2, §3
According to the method of Test Example 2, the cell proliferation inhibitory effect on various cancer cell lines as described in Table 24 was evaluated. […]

Regarding `Cc1c(Cl)ccc(F)c1[C@@H](C)[C@H](NS(=O)(=O)c1ccc(Cl)c2c1OCCC2(C)O)c1n[nH]c(=O)o1` (single isomer, unassigned) [Example 209A], the half-inhibitory concentration (IC50) (usually the concentration that inhibits the measured activity by half) in experiment [1] turned out to be 100 nM. Further, in experiment [2], the “antitumor effect (relative tumor volume, RTV)” value is recorded as “antitumor effect”.

Take `Cc1c(Br)ccc(F)c1[C@@H](C)[C@H](NS(=O)(=O)c1ccc(Cl)c2c1OCCC2(C)O)c1n[nH]c(=O)o1` (single isomer, unassigned) [Example 222A]: in experiment [1], the concentration for half-maximal inhibition (IC50) amounted to 80 nM. Further, in experiment [2], the “antitumor effect (relative tumor volume, RTV)” value is recorded as “antitumor effect”.

For `Cc1c(Cl)ccc(F)c1[C@@H](C)[C@H](NS(=O)(=O)c1ccc(Cl)c2c1OCCC2(C)O)c1n[nH]c(=O)o1` (single isomer, unassigned) [Example 228A], the “antitumor effect (relative tumor volume, RTV)” value in experiment [2] was “antitumor effect”.

As for `[2H]C([2H])([2H])C1(O)CCOc2c(S(=O)(=O)N[C@H](c3n[nH]c(=O)o3)[C@H](C)c3c(F)ccc(Cl)c3C)ccc(Cl)c21` (single isomer, unassigned) [Example 228A], the IC50 in experiment [1] came to 80 nM; in experiment [3], 140 nM.

In the case of `Cc1ccc(F)c([C@@H](C)[C@H](NS(=O)(=O)c2ccc(Cl)c3c2OCCC3O)c2n[nH]c(=O)o2)c1C` (single isomer, unassigned) [Example 235A], the IC50 in experiment [1] worked out at 80 nM. The “antitumor effect (relative tumor volume, RTV)” value in experiment [2] is listed as “antitumor effect”.

Consider `Cc1ccc(F)c([C@@H](C)[C@H](NS(=O)(=O)c2ccc(Cl)cc2C(N)=O)c2n[nH]c(=O)o2)c1C` [Example 5], for which the IC50 in experiment [1] was found to be 140 nM; in experiment [4], 1570 nM. Besides, the “antitumor effect (relative tumor volume, RTV)” value in experiment [2] is reported as “antitumor effect”.

Regarding `CCc1ccc(F)c([C@@H](C)[C@H](NS(=O)(=O)c2ccc(Cl)cc2C(N)=O)c2n[nH]c(=O)o2)c1C` [Example 11, 5-chloro-2-(N-((1S,2R)-2-(3-ethyl-6-fluoro-2-methylphenyl)-1-(5-oxo-4,5-dihydro-1,3,4-oxadiazol-2-yl)propyl)sulfamoyl)benzamide], the IC50 in experiment [1] came out at 180 nM; in experiment [4] it was 5220 nM. In addition, the “antitumor effect (relative tumor volume, RTV)” value in experiment [2] is given as “antitumor effect”.

As for `Cc1c(Cl)ccc(F)c1[C@@H](C)[C@H](NS(=O)(=O)c1ccc(Cl)cc1C(N)=O)c1n[nH]c(=O)o1` [Example 14, 5-chloro-2-(N-((1S,2R)-2-(3-chloro-6-fluoro-2-methylphenyl)-1-(5-oxo-4,5-dihydro-1,3,4-oxadiazol-2-yl)propyl)sulfamoyl)benzamide], the IC50 in experiment [1] came to 250 nM. For the same molecule, the “antitumor effect (relative tumor volume, RTV)” value in experiment [2] is given as “antitumor effect”.

For `CC(=O)OC1(C)CCOc2c(S(=O)(=O)N[C@H](c3n[nH]c(=O)o3)[C@H](C)c3c(F)ccc(C)c3C)ccc(Cl)c21` (stereo partly drawn) [Example 95, 5-chloro-8-(N-((1S,2R)-2-(6-fluoro-2,3-dimethylphenyl)-1-(5-oxo-4,5-dihydro-1,3,4-oxadiazol-2-yl)propyl)sulfamoyl)-4-methylchroman-4-ylacetate], the IC50 in experiment [1] and in experiment [3] was 140 nM throughout.

Turning to `COc1c(S(=O)(=O)N[C@H](c2n[nH]c(=O)o2)[C@H](C)c2c(F)ccc(C)c2C)ccc(Cl)c1C(C)O` (stereo partly drawn) [Example 204, 4-chloro-N-((1S,2R)-2-(6-fluoro-2,3-dimethylphenyl)-1-(5-oxo-4,5-dihydro-1,3,4-oxadiazol-2-yl)propyl)-3-(1-hydroxyethyl)-2-methoxybenzenesulfonamide], the concentration for half-maximal inhibition (IC50) in experiment [1] and in experiment [3] was 150 nM in each case.
